Source: patent EP2518159A1, “Method for determining the neurodevelopmental toxicity of a compound in vitro” (priority 2011, dated 2012)

Experiments:
Details in all cases: ES-D3 neural differentiation culture, exposed from day 3, harvested on day 4 (24h exposure); relative to DMSO control (1 = unchanged); 25 nM MeHg, 100 µM cyproconazole, 1000 µM valproic acid, 25 µM hexaconazole
Car4 = assay: Gene expression change of Car4 in neural differentiation culture of embryonic stem cells (Affymetrix microarray)
Protocol: (§1) Murine embryonic stem cells (ESC) (ES-D3, ATCC, Rockville, MD, USA) were routinely subcultured every 2-3 days and grown as a monolayer in CM supplemented with leukemia inhibiting factor (LIF) (Chemicon, Temecula, CA, USA) at a final concentration of 1000 units/ml. The cells were maintained in a humidified atmosphere at 37°C and 5% CO2.
(§2) Differentiation of ESC into the neural lineage was carried out as described earlier (Theunissen et al., 2010). In brief, stem cell suspensions (3.75×10^4 cells/ml) were placed on ice before the initiation of the culture. Drops (20µl) containing 750 cells in CM were placed onto the inner side of the lid of a 90 cm Petri dish filled with phosphate-buffered saline (PBS) (Gibco BRL, Gaithersburg, MD) and incubated at 37 °C, 90% relative humidity and 5% CO2. After 3 days of hanging drop culture embryoid bodies (EB) had formed and were subsequently transferred to 60mm bacterial Petri dishes (Greiner Bio-one, Frickenhausen, Germany) containing CM supplemented with 0.5 µM retinoic acid (RA). On day 5, EB were plated on laminin (Roche, Basel, Switzerland) coated dishes (Corning Incorporated, Corning, NY, USA) in LS medium supplemented with 2.5 ug/ml fibronectin (Invitrogen, Carlsbad, CA, USA). One day later, on day 6, the LS medium was replaced by ITS medium. On day 7, EB were washed with phosphate buffered saline (PBS) (Gibco BRL, Gaithersburg, MD, USA) and incubated in cell dissociation buffer (Gibco BRL, Gaithersburg, MD, USA) for 3 minutes. Then EB were carefully detached from each Petri dish without dissociating the EBs and the entire content was replated on poly-L-ornithine (Sigma-Aldrich, Zwijndrecht, The Netherlands) and laminin coated dish in N2 medium supplemented with 10 ng/ml basic fibroblast growth factor (bFGF) (Srtathmann-Biotec AG, Englewood, CO, USA). The N2 medium supplemented with bFGF was replaced every other day for 7 days.
(§3) Control differentiation cultures were harvested on culture days 3, 4 and 5 (8 replicates per group). Differentiation cultures were exposed to the 3 neurodevelopmental toxicants and controls from day 3 onwards and harvested on day 4 (24h exposure) (8 replicates per group). Cells (-40-50 EB/sample) were directly collected in RNA Protect (Qiagen Benelux, Venlo, The Netherlands) to stabilize RNA, and total RNA was purified using the Qiagen RNEasy Plus Mini Kit (Qiagen Benelux, Venlo, The Netherlands) following the manufacturer's instructions. RNA quantity was determined using the NanoDrop Spectophotometer (Isogen Lifescience, de Meern, The Netherlands). RNA integrity was assessed on the 2100 Bioanalyzer (Agilent, Santa Clara, CA, USA) using the RNA 6000 Nano Chip Kit (Agilent, Santa Clara, CA, USA), and good quality RNA was used for gene expression analysis (RNA integrity number (RIN) > 8.0).

Shisa6 = assay: Gene expression change of Shisa6 in neural differentiation culture of embryonic stem cells (Affymetrix microarray)
Protocol: as §1, §2, §3

Emilin2 = assay: Gene expression change of Emilin2 in neural differentiation culture of embryonic stem cells (Affymetrix microarray)
Protocol: as §1, §2, §3

| Compound | Ratio, gene expression change Car4 (Car4) | Ratio, gene expression change Shisa6 (Shisa6) | Ratio, gene expression change Emilin2 (Emilin2) |
| --- | --- | --- | --- |
| CC(C1CC1)C(O)(Cn1cncn1)c1ccc(Cl)cc1 (stereo not drawn) [Cyp, Cyproconazole] | 0.777 | 1.228 | 1.270 |
| CCCCC(O)(Cn1cncn1)c1ccc(Cl)cc1Cl (stereo not drawn) [Hex, Hexaconazole] | 0.936 | 1.096 | 1.185 |
| [CH3][Hg][Cl] [MeHg, Methylmercury chloride] | 0.686 | 1.380 | 1.351 |
| CCCC(CCC)C(=O)[O-].[Na+] [VPA, Valproic acid sodium salt] | 1.373 | 0.752 | 2.063 |
